Assay results as given in patent US8410302B2, “Methoxyimino compounds and fungicide composition comprising same” (Kyung Nong Corporation, priority 2007, dated 2013).

Legend:
[1] = tested on: Pyricularia oryzae Carvara KA301; experiment: whole plant or invertebrate; assay type: in vivo; conditions: Pyricularia oryzae, read-out: RCB control value (C.V.)
Rhizoctonia solani AG-1 = experiment: Fungicidal activity against rice sheath blight (RSB) disease, control value; conditions: Rhizoctonia solani, AG1, in Oryza sativa, read-out: RSB control value (C.V.)
Puccinia recondita = experiment: Fungicidal activity against wheat leaf rust (WLR) disease, control value; assay type: in vivo; conditions: Puccinia recondita, read-out: WLR control value (C.V.)
Erysiphae graminis = experiment: Fungicidal activity against barley powdery mildew (BPM) disease, control value; assay type: in vivo; conditions: 168 h, read-out: BPM control value (C.V.)
Botrytis cinerae = experiment: Fungicidal activity against cucumber gray mold rot (CGM) disease, control value; assay type: in vivo; conditions: Botrytis; 100 ppm; read-out: CGM control value (C.V.)
Phytophthora infestans = experiment: whole plant or invertebrate; assay type: in vivo; conditions: Phytophthora infestans, in Solanum lycopersicum, read-out: TLB control value (C.V.)

**Q.** Which pest or weed control at 2 ppm [1] does the source give for `CNC(=O)/C(=N/OC)c1ccccc1COc1ccc(C=C(Br)Br)c(Cl)c1` [Example 82, (E)-2-(2-((4-(2,2-dibromovinyl)-3-chlorophenoxy)methyl)phenyl)-2-methoxyimino-N-methylacetamide] here?
**A.** 70%

**Q.** What about the pest or weed control at 10 ppm [1] of the same molecule?
**A.** 90%

**Q.** And the pest or weed control at 50 ppm [1]?
**A.** 100%

**Q.** What about the pest or weed control at 100 ppm [1] of the same molecule?
**A.** 100%

**Q.** What about the pest or weed control at 2 ppm (Rhizoctonia solani AG-1) of the same molecule?
**A.** 70%

**Q.** And the pest or weed control at 10 ppm (Rhizoctonia solani AG-1)?
**A.** 90%

**Q.** And the pest or weed control at 50 ppm (Rhizoctonia solani AG-1)?
**A.** 99%

**Q.** And the pest or weed control at 100 ppm (Rhizoctonia solani AG-1)?
**A.** 100%

**Q.** And the pest or weed control at 2 ppm (Puccinia recondita)?
**A.** 98%

**Q.** And the pest or weed control at 10 ppm (Puccinia recondita)?
**A.** 100%

**Q.** What about the pest or weed control at 50 ppm (Puccinia recondita) of the same molecule?
**A.** 100%

**Q.** And the pest or weed control at 100 ppm (Puccinia recondita)?
**A.** 100%

**Q.** And the pest or weed control at 2 ppm (Erysiphae graminis)?
**A.** 5%

**Q.** And the pest or weed control at 10 ppm (Erysiphae graminis)?
**A.** 90%

**Q.** What about the pest or weed control at 50 ppm (Erysiphae graminis) of the same molecule?
**A.** 95%

**Q.** What about the pest or weed control at 100 ppm (Erysiphae graminis) of the same molecule?
**A.** 95%

**Q.** And the pest or weed control at 100 ppm (Botrytis cinerae)?
**A.** 0%

**Q.** What about the pest or weed control at 10 ppm (Phytophthora infestans) of the same molecule?
**A.** 30%

**Q.** What about the pest or weed control at 50 ppm (Phytophthora infestans) of the same molecule?
**A.** 90%

**Q.** What about the pest or weed control at 100 ppm (Phytophthora infestans) of the same molecule?
**A.** 90%

**Q.** Which pest or weed control at 2 ppm [1] does the source give for `CCOc1cc(C=C(Br)Br)ccc1OCc1ccccc1/C(=N\OC)C(=O)OC` [Example 83, methyl-(E)-2-(2-((4-(2,2-dibromovinyl)-2-ethoxyphenoxy)methyl)phenyl)-2-methoxyiminoacetate] here?
**A.** 50%

**Q.** What about the pest or weed control at 10 ppm [1] of the same molecule?
**A.** 90%

**Q.** What about the pest or weed control at 50 ppm [1] of the same molecule?
**A.** 100%

**Q.** And the pest or weed control at 100 ppm [1]?
**A.** 100%

**Q.** What about the pest or weed control at 2 ppm (Rhizoctonia solani AG-1) of the same molecule?
**A.** 75%

**Q.** And the pest or weed control at 10 ppm (Rhizoctonia solani AG-1)?
**A.** 98%

**Q.** And the pest or weed control at 50 ppm (Rhizoctonia solani AG-1)?
**A.** 100%

**Q.** What about the pest or weed control at 100 ppm (Rhizoctonia solani AG-1) of the same molecule?
**A.** 100%

**Q.** And the pest or weed control at 2 ppm (Puccinia recondita)?
**A.** 95%

**Q.** What about the pest or weed control at 10 ppm (Puccinia recondita) of the same molecule?
**A.** 100%

**Q.** And the pest or weed control at 50 ppm (Puccinia recondita)?
**A.** 100%

**Q.** What about the pest or weed control at 100 ppm (Puccinia recondita) of the same molecule?
**A.** 100%

**Q.** What about the pest or weed control at 2 ppm (Erysiphae graminis) of the same molecule?
**A.** 95%

**Q.** What about the pest or weed control at 10 ppm (Erysiphae graminis) of the same molecule?
**A.** 100%

**Q.** And the pest or weed control at 50 ppm (Erysiphae graminis)?
**A.** 100%

**Q.** What about the pest or weed control at 100 ppm (Erysiphae graminis) of the same molecule?
**A.** 100%

**Q.** And the pest or weed control at 100 ppm (Botrytis cinerae)?
**A.** 50%

**Q.** What about the pest or weed control at 2 ppm (Phytophthora infestans) of the same molecule?
**A.** 70%

**Q.** And the pest or weed control at 10 ppm (Phytophthora infestans)?
**A.** 90%

**Q.** What about the pest or weed control at 50 ppm (Phytophthora infestans) of the same molecule?
**A.** 98%

**Q.** What about the pest or weed control at 100 ppm (Phytophthora infestans) of the same molecule?
**A.** 100%

**Q.** How did the pest or weed control at 2 ppm [1] turn out when `CCOc1cc(C=C(Br)Br)ccc1OCc1ccccc1/C(=N\OC)C(=O)NC` [Example 84, (E)-2-(2-((4-(2,2-dibromovinyl)-2-ethoxyphenoxy)methyl)phenyl)-2-methoxyimino-N-methylacetamide] was run?
**A.** 30%

**Q.** And the pest or weed control at 10 ppm [1]?
**A.** 90%

**Q.** What about the pest or weed control at 50 ppm [1] of the same molecule?
**A.** 100%

**Q.** What about the pest or weed control at 100 ppm [1] of the same molecule?
**A.** 100%

**Q.** And the pest or weed control at 2 ppm (Rhizoctonia solani AG-1)?
**A.** 55%

**Q.** What about the pest or weed control at 10 ppm (Rhizoctonia solani AG-1) of the same molecule?
**A.** 98%

**Q.** What about the pest or weed control at 50 ppm (Rhizoctonia solani AG-1) of the same molecule?
**A.** 100%

**Q.** What about the pest or weed control at 100 ppm (Rhizoctonia solani AG-1) of the same molecule?
**A.** 100%

**Q.** And the pest or weed control at 2 ppm (Puccinia recondita)?
**A.** 95%

**Q.** And the pest or weed control at 10 ppm (Puccinia recondita)?
**A.** 100%

**Q.** And the pest or weed control at 50 ppm (Puccinia recondita)?
**A.** 100%

**Q.** And the pest or weed control at 100 ppm (Puccinia recondita)?
**A.** 100%

**Q.** What about the pest or weed control at 2 ppm (Erysiphae graminis) of the same molecule?
**A.** 90%

**Q.** What about the pest or weed control at 10 ppm (Erysiphae graminis) of the same molecule?
**A.** 100%

**Q.** What about the pest or weed control at 50 ppm (Erysiphae graminis) of the same molecule?
**A.** 100%

**Q.** And the pest or weed control at 100 ppm (Erysiphae graminis)?
**A.** 100%

**Q.** And the pest or weed control at 100 ppm (Botrytis cinerae)?
**A.** 70%

**Q.** What about the pest or weed control at 2 ppm (Phytophthora infestans) of the same molecule?
**A.** 70%

**Q.** What about the pest or weed control at 10 ppm (Phytophthora infestans) of the same molecule?
**A.** 90%

**Q.** And the pest or weed control at 50 ppm (Phytophthora infestans)?
**A.** 98%

**Q.** And the pest or weed control at 100 ppm (Phytophthora infestans)?
**A.** 100%

**Q.** Which pest or weed control at 2 ppm [1] does the source give for `CO/N=C(/C(=O)OC)c1ccccc1COc1cc(Br)ccc1C=C(Br)Br` [Example 85, methyl-(E)-2-(2-((5-bromo-2-(2,2-dibromovinyl)phenoxy)methyl)phenyl)-2-methoxyiminoacetate] here?
**A.** 70%

**Q.** What about the pest or weed control at 10 ppm [1] of the same molecule?
**A.** 90%

**Q.** What about the pest or weed control at 50 ppm [1] of the same molecule?
**A.** 100%

**Q.** What about the pest or weed control at 100 ppm [1] of the same molecule?
**A.** 100%

**Q.** And the pest or weed control at 2 ppm (Rhizoctonia solani AG-1)?
**A.** 60%

**Q.** And the pest or weed control at 10 ppm (Rhizoctonia solani AG-1)?
**A.** 85%

**Q.** And the pest or weed control at 50 ppm (Rhizoctonia solani AG-1)?
**A.** 96%

**Q.** What about the pest or weed control at 100 ppm (Rhizoctonia solani AG-1) of the same molecule?
**A.** 99%

**Q.** What about the pest or weed control at 2 ppm (Puccinia recondita) of the same molecule?
**A.** 80%

**Q.** And the pest or weed control at 10 ppm (Puccinia recondita)?
**A.** 99%

**Q.** And the pest or weed control at 50 ppm (Puccinia recondita)?
**A.** 100%

**Q.** And the pest or weed control at 100 ppm (Puccinia recondita)?
**A.** 100%

**Q.** What about the pest or weed control at 2 ppm (Erysiphae graminis) of the same molecule?
**A.** 25%

**Q.** What about the pest or weed control at 10 ppm (Erysiphae graminis) of the same molecule?
**A.** 70%

**Q.** And the pest or weed control at 50 ppm (Erysiphae graminis)?
**A.** 97%

**Q.** And the pest or weed control at 100 ppm (Erysiphae graminis)?
**A.** 100%

**Q.** What about the pest or weed control at 100 ppm (Botrytis cinerae) of the same molecule?
**A.** 35%

**Q.** What about the pest or weed control at 10 ppm (Phytophthora infestans) of the same molecule?
**A.** 20%

**Q.** What about the pest or weed control at 50 ppm (Phytophthora infestans) of the same molecule?
**A.** 100%

**Q.** And the pest or weed control at 100 ppm (Phytophthora infestans)?
**A.** 100%

**Q.** Which results are given for `CNC(=O)/C(=N/OC)c1ccccc1COc1cc(Br)ccc1C=C(Br)Br` [Example 86, (E)-2-(2-((5-bromo-2-(2,2-dibromovinyl)phenoxy)methyl)phenyl)-2-methoxyimino-N-methylacetamide]?
**A.** pest or weed control at 2 ppm [1]: 30%; pest or weed control at 10 ppm [1]: 90%; pest or weed control at 50 ppm [1]: 100%; pest or weed control at 100 ppm [1]: 100%; pest or weed control at 2 ppm (Rhizoctonia solani AG-1): 65%; pest or weed control at 10 ppm (Rhizoctonia solani AG-1): 98%; pest or weed control at 50 ppm (Rhizoctonia solani AG-1): 100%; pest or weed control at 100 ppm (Rhizoctonia solani AG-1): 100%; pest or weed control at 2 ppm (Puccinia recondita): 95%; pest or weed control at 10 ppm (Puccinia recondita): 100%; pest or weed control at 50 ppm (Puccinia recondita): 100%; pest or weed control at 100 ppm (Puccinia recondita): 100%; pest or weed control at 2 ppm (Erysiphae graminis): 90%; pest or weed control at 10 ppm (Erysiphae graminis): 100%; pest or weed control at 50 ppm (Erysiphae graminis): 100%; pest or weed control at 100 ppm (Erysiphae graminis): 100%; pest or weed control at 100 ppm (Botrytis cinerae): 40%; pest or weed control at 2 ppm (Phytophthora infestans): 70%; pest or weed control at 10 ppm (Phytophthora infestans): 90%; pest or weed control at 50 ppm (Phytophthora infestans): 98%; pest or weed control at 100 ppm (Phytophthora infestans): 100%
